Laboratory results: the supplement of paper PMC12463676, “Small-molecule dissolution of stress granules by redox modulation benefits ALS models” (Nature Chemical Biology, 2025)

Tests used:
[1] = compound: NC(=O)CCCCC1CCSS1 [lipoamide]; experiment: thermal stability z-score vs DMSO; higher = more thermally stabilized by treatment; conditions: HeLa, lipoamide concentration 100 µM
Experimental: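 Cellular thermal proteome profiling in HeLa cells. Cells were treated with 100 µM lipoamide for 1 h, with or without 1 mM arsenate for a further 1 h, then heated to ten temperatures (37-66.3 °C), and soluble protein was quantified by TMT mass spectrometry relative to 0.1% DMSO controls. The thermal stability score (sum of log2 fold changes minus the abundance score) was transformed to a z-score; mean of n = 3 experiments.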

[2] = compound: O=[As]([O-])(O)O.[K+] [potassium arsenate]; experiment: as above; conditions: HeLa; arsenate concentration 1 mM
Experimental: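 Cellular thermal proteome profiling in HeLa cells treated with 1 mM arsenate for 1 h (DMSO pretreatment), heated to ten temperatures (37-66.3 °C). Soluble protein was quantified by TMT mass spectrometry relative to DMSO controls; the thermal stability score was transformed to a z-score; mean of n = 3 experiments.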

[3] = arsenate co-treatment: 1 mM arsenate 1 h
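Also: each temperature applied for 3 min, abundance score taken as mean log2 fold change at the two lowest temperatures, z-score obtained by mean subtraction and division by SD.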

Sequence of UniProt Q06609 (Q06609 whole entry): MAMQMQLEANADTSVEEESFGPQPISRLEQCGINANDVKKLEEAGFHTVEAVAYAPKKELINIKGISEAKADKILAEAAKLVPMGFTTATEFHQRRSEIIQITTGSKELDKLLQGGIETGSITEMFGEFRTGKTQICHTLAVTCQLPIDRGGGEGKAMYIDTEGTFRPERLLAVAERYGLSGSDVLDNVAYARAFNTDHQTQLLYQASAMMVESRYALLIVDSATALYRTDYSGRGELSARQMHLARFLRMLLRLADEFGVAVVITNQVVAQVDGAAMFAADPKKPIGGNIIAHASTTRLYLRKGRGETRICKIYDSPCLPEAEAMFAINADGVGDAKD
Sequence of UniProt O60671 (O60671 whole entry): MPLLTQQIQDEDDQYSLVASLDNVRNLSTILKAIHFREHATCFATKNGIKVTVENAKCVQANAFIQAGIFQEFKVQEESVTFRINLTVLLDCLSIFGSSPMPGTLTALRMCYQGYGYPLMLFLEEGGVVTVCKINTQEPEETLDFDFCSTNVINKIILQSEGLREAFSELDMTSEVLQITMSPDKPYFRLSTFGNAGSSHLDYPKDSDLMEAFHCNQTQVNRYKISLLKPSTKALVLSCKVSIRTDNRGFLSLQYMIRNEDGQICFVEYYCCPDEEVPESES
Sequence of UniProt Q86X27 (Q86X27 whole entry): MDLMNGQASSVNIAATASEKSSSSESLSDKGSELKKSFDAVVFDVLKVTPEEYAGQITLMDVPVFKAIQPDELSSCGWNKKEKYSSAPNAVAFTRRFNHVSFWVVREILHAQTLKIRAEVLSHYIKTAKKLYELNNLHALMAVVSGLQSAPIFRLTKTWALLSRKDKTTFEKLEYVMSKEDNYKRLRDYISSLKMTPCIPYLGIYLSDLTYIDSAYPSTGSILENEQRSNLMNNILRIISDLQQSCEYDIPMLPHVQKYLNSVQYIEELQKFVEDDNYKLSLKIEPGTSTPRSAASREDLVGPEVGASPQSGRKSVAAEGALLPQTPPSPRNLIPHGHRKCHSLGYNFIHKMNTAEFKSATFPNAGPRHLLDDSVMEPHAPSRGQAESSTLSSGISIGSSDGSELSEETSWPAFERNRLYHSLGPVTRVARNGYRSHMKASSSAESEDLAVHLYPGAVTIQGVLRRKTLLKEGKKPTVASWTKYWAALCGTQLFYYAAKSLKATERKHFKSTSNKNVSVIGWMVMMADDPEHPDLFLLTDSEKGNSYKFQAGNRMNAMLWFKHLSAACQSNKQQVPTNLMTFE
Sequence of UniProt Q5HYI8 (Q5HYI8 whole entry): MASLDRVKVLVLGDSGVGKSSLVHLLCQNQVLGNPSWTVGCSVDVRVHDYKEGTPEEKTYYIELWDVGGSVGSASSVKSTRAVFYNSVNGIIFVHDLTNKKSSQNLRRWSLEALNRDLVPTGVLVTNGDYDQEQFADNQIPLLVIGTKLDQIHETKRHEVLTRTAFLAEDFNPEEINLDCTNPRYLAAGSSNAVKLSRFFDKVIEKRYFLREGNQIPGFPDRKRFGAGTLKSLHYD
Sequence of UniProt P46060 (P46060 whole entry): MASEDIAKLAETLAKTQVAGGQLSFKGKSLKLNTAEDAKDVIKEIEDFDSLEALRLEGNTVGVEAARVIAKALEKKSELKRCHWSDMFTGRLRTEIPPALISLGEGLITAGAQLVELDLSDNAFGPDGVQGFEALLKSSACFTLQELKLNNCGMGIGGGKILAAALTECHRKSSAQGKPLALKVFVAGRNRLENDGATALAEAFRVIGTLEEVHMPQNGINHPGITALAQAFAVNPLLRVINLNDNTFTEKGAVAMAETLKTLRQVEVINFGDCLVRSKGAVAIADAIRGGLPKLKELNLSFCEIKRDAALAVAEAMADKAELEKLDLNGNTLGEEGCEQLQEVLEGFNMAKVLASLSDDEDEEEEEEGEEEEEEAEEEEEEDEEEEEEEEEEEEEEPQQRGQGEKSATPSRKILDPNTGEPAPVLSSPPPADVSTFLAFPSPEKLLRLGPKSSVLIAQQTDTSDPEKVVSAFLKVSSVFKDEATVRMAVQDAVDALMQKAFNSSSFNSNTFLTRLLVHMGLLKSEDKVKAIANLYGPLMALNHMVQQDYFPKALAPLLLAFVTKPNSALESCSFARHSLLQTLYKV
Sequence of UniProt P53611 (P53611 whole entry): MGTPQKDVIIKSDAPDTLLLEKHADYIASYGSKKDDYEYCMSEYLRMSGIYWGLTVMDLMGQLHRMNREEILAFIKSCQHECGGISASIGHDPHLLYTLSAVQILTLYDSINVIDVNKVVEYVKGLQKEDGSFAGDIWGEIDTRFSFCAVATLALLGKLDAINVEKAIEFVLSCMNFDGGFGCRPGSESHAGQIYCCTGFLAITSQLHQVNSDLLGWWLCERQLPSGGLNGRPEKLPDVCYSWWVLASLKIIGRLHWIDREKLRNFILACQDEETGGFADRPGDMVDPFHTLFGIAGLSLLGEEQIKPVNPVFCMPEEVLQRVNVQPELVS
Sequence of UniProt Q9Y620 (Q9Y620 whole entry): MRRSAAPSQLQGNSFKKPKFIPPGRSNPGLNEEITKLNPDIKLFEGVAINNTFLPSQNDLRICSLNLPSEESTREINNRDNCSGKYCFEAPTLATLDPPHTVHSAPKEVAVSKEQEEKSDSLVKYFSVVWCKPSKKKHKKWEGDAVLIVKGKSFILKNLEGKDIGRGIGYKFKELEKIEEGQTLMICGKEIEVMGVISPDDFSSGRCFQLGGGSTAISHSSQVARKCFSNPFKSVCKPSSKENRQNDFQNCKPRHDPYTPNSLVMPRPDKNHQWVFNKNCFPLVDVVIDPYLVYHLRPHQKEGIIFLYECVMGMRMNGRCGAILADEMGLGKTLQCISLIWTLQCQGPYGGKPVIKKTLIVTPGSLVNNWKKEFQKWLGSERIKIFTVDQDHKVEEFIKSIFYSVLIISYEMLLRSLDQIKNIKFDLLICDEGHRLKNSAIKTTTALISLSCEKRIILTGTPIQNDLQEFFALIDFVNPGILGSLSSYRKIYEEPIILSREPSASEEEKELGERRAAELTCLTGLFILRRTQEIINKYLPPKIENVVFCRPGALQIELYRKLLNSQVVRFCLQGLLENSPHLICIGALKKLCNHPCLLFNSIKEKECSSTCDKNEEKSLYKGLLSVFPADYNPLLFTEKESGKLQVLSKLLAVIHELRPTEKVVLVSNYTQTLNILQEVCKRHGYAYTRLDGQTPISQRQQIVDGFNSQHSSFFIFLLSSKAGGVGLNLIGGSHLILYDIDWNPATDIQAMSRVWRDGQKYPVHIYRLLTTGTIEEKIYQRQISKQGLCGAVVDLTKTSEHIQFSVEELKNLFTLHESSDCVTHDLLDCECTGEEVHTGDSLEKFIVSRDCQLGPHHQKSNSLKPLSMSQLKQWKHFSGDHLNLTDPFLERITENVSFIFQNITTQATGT
Sequence of UniProt Q9Y4G8 (Q9Y4G8 whole entry): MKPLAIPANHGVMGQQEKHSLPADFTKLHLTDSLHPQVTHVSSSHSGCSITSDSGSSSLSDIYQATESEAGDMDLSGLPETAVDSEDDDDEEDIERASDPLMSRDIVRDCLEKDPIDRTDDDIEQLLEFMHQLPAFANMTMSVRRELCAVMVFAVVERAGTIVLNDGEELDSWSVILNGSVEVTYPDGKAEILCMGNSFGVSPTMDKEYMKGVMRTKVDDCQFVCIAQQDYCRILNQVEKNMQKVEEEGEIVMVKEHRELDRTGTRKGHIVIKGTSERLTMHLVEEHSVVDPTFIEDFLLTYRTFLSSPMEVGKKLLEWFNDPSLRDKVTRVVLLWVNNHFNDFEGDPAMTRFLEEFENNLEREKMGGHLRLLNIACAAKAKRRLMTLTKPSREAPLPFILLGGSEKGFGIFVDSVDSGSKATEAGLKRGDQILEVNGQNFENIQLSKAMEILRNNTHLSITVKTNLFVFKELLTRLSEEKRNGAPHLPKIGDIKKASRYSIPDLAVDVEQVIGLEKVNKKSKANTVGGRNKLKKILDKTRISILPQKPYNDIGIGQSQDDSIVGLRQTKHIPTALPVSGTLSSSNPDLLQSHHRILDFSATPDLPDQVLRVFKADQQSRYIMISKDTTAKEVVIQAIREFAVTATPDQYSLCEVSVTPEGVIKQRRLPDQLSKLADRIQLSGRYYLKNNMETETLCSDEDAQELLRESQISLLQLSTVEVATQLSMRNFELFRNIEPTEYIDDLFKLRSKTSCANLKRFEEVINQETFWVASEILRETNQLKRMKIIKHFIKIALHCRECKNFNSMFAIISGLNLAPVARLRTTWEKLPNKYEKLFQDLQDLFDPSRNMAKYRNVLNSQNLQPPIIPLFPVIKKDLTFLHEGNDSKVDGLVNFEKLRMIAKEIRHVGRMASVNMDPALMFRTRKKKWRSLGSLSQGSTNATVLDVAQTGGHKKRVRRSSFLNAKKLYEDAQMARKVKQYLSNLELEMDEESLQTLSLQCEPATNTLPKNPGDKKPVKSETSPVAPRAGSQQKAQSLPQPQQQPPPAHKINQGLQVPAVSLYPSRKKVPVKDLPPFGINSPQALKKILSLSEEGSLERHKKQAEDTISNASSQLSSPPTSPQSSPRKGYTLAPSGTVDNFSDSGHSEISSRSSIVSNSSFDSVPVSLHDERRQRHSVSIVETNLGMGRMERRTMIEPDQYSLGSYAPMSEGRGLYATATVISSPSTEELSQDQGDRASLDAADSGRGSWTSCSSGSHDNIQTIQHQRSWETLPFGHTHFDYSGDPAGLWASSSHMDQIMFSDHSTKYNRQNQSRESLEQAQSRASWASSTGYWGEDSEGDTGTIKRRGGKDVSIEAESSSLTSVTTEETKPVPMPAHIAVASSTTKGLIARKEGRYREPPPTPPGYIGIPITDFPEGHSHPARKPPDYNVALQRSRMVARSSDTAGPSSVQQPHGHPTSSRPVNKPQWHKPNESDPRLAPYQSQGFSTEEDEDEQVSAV
Sequence of UniProt P61225 (P61225 whole entry): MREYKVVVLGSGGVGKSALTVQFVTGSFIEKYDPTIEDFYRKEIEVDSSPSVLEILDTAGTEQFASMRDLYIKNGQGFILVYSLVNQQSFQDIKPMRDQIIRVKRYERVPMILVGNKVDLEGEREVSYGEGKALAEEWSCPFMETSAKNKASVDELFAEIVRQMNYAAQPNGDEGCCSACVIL

Target	thermal stability z-score [1, 3]	thermal stability z-score ([1]; arsenate co-treatment: none)	thermal stability z-score [2]
RABEPK (UniProt Q7Z6M1)	0.68	0.305	-0.0506
RABGAP1 (UniProt Q9Y3P9)	-0.333	-0.253	0.318
RABGAP1L	-0.279	-0.536	0.339
RABGEF1 (UniProt Q9UJ41)	-0.0343	-0.0874	-0.113
RABGGTA (UniProt Q92696)	-0.0918	-0.138	-0.000862
RABGGTB (UniProt P53611)	0.508	-0.0991	1.46
RABIF (UniProt P47224)	0.243	0.233	-0.572
RABL2A|RABL2B	0.0788	-0.011	-0.151
RABL3 (UniProt Q5HYI8)	-0.437	-0.307	-0.0747
RABL6 (UniProt Q3YEC7)	-0.678	-0.754	-0.246
RAC1 (UniProt P63000)	0.154	-0.0299	0.562
RACGAP1 (UniProt Q9H0H5)	-0.198	-0.0575	-0.148
RACK1 (UniProt P63244)	0.56	0.4	-0.92
RAD1 (UniProt O60671)	1.26	0.445	1.31
RAD17 (UniProt O75943)	-0.324	-0.278	-0.848
RAD18 (UniProt Q9NS91)	-0.082	-0.0293	-0.0799
RAD21 (UniProt O60216)	0.628	0.377	0.297
RAD23A (UniProt P54725)	0.0472	0.234	-0.142
RAD23B (UniProt P54727)	1.08	1.05	0.357
RAD50 (UniProt Q92878)	0.0652	-0.163	-0.768
RAD51 (UniProt Q06609)	0.0327	0.256	-0.0411
RAD51AP1 (UniProt Q96B01)	0.0622	-0.213	-0.76
RAD51B (UniProt O15315)	0.231	0.428	0.578
RAD54B (UniProt Q9Y620)	-0.335	-0.346	-0.753
RAD54L2 (UniProt Q9Y4B4)	-0.0715	0.0462	-0.235
RAE1 (UniProt P78406)	0.676	1.04	0.662
RAF1 (UniProt P04049)	-0.142	0.126	-0.0609
RAI14 (UniProt Q9P0K7)	-0.47	-0.419	-0.554

Target	thermal stability z-score [1, 3]	thermal stability z-score ([1]; arsenate co-treatment: none)	thermal stability z-score [2]
RALA (UniProt P11233)	0.107	-0.0183	-0.459
RALB (UniProt P11234)	0.25	-0.129	0.0205
RALBP1 (UniProt Q15311)	0.0469	0.055	0.00922
RALGAPA1 (UniProt Q6GYQ0)	-0.102	-0.115	-2.14
RALGAPB (UniProt Q86X10)	-0.0332	-0.00538	-0.112
RALGPS2 (UniProt Q86X27)	-0.0453	0.191	-0.177
RALY (UniProt Q9UKM9)	0.0855	-0.0305	0.00385
RAN (UniProt P62826)	0.345	-0.105	0.547
RANBP1 (UniProt P43487)	-0.127	0.319	0.475
RANBP2 (UniProt P49792)	-0.733	-0.425	1.49
RANBP3 (UniProt Q9H6Z4)	-0.326	0.21	-0.0109
RANBP6 (UniProt O60518)	-0.296	-0.155	-0.131
RANBP9 (UniProt Q96S59)	-0.364	-0.234	-0.508
RANBP10 (UniProt Q6VN20)	0.521	0.385	0.3
RANGAP1 (UniProt P46060)	0.0948	0.327	1.77
RAP1A (UniProt P62834)	0.141	-0.173	-0.254
RAP1B (UniProt P61224)	0.74	0.45	0.17
RAP1GAP2 (UniProt Q684P5)	1.12	0.923	0.124
RAP1GAP (UniProt P47736)	-0.459	-0.26	0.233
RAP1GDS1 (UniProt P52306)	0.161	-0.118	0.353
RAP2B (UniProt P61225)	0.92	0.134	-0.0313
RAP2C (UniProt Q9Y3L5)	1.35	0.676	0.21
RAPGEF2 (UniProt Q9Y4G8)	0.309	-0.293	-0.388
RAPH1 (UniProt Q70E73)	-0.113	-0.22	0.0198
RARS2 (UniProt Q5T160)	0.0904	-0.0472	0.328
RARS (UniProt P54136)	-0.341	-0.305	0.39
RASA1 (UniProt P20936)	0.447	0.753	1.15
